These results are taken from US9409952B2, “Peptide-compound cyclization method” (Chugai Seiyaku Kabushiki Kaisha, priority 2011, dated 2016).

Data set [1] in a line: Metabolic stability in human hepatic microsome. It is filed as in vitro ADME. The conditions noted are these: microsomes.
Data set [2] can be described thus: PAMPA (parallel artificial membrane permeability assay). The data set is classed as in vitro ADME. To be noted: for Papp at 18 hours, 50 µM: PAMPA. In a few lines: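 Artificial membrane was 10% (w/v) egg lecithin plus 0.5% (w/v) cholesterol in dodecane on a PVDF filter. A 10 mM DMSO stock was added at 0.5% (v/v) to donor buffer (50 mM MOPSO, pH 6.5, 5.0% glycocholic acid). After 18 h at 37 °C, LC/MS or LC/UV gave donor and acceptor levels for Pe.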

Setting [3] is: pH 7.4, human hepatic microsome, NADPH(+), read-out: CL NADPH(+).
[4] abbreviates: membrane permeation rate (Pe), 50 mM MOPSO buffer pH 6.5 with 5.0% glycocholic acid, 37° C., 18 hours, read-out: iPAMPA Pe.

Like-named read-outs stand apart in the source and are kept apart here. Starred links: 1 amine or outer side, 2 acyl side, 3 side chain; linkers in the order of their positions; H or OH if unused. Positions of bridges follow the written chain, without caps; N, C: chain ends. Non-standard residues stand in square brackets, D forms with d. Residues, ends and D or L forms follow the SMILES beside them. ξ: configuration not given here. *: point of attachment. Phe(3-(CH2)4CO) = O=C([C@H](Cc1cccc(CCCCC(=O)[*:3])c1)N[*:1])[*:2]; NMeF = CN[C@@H](Cc1ccccc1)C(=O)O; NMeGABA = CN(CCCC(=O)[*:2])[*:1]; NMeI = CC[C@H](C)[C@H](NC)C(=O)O; NMeβAla = CN(CCC(=O)[*:2])[*:1]; NMeL = CN[C@@H](CC(C)C)C(=O)O; NMeV = CN[C@H](C(=O)O)C(C)C; NMeS = CN[C@@H](CO)C(=O)O; NMeA = CN[C@@H](C)C(=O)O; Piperidide = C1CCN(*)CC1; dNMeA = CN[C@H](C)C(=O)O; β3hA = C[C@H](N)CC(=O)O; Abu = CC[C@H](N)C(=O)O; ξP = O=C(O)C1CCCN1; Sar = CNCC(=O)O; tBu = CC(C)(C)*

Turning to `CC(C)C[C@@H]1NC(=O)[C@H](CC(C)C)N(C)C(=O)[C@@H]2CCCN2C(=O)[C@H](CC(C)C)N(C)C(=O)[C@H](Cc2ccccc2)NC(=O)CNC(=O)[C@H](CC(C)C)N(C)C(=O)[C@H](Cc2ccccc2)NC(=O)CCN(C)C(=O)C[C@@H](C(=O)N(C)[C@@H](Cc2ccccc2)C(=O)N[C@@H](C)C(=O)N2CCCCC2)NC(=O)[C@H]([C@@H](C)O)NC1=O` [DP-182] ([NMeβAla]F[NMeL]GF[NMeL]P[NMeL]LTD[NMeF]A-Piperidide; lactam N-11), in data set [1] (setting [3]), the microsomal CLint at 1 uM worked out at 9 µL/min/mg. For the same compound, in data set [2] (setting [4]), the Papp at 18 hours, 50 µM stood at 26 ×10⁻⁶ cm/s.

`CC(C)C[C@@H]1NC(=O)[C@H](CC(C)C)N(C)C(=O)[C@H](CC(C)C)N(C)C(=O)C[C@@H](C(=O)N2CCCCC2)NC(=O)[C@H](Cc2ccccc2)N(C)C(=O)C2CCCN2C(=O)[C@H]([C@@H](C)O)NC(=O)[C@H](Cc2ccccc2)N(C)C1=O` (stereo partly drawn) [DP-706] ([NMeL][NMeL]L[NMeF]T[ξP][NMeF]D-Piperidide; lactam N-8): the microsomal CLint at 1 uM in data set [1] (human, pH 7.4, CL NADPH(+)) was 264 µL/min/mg. Moreover, the Papp at 18 hours, 50 µM in data set [2] (pH 6.5) was 48 ×10⁻⁶ cm/s.

For the compound `CC(C)C[C@H]1C(=O)N[C@H](C(=O)N2CCCCC2)CC(=O)N(C)CCCC(=O)N(C)[C@@H](Cc2ccccc2)C(=O)N[C@@H]([C@@H](C)O)C(=O)N(C)CC(=O)N[C@@H](COC(C)(C)C)C(=O)N1C` [DP-535] ([NMeGABA][NMeF]T[Sar]S(tBu)[NMeL]D-Piperidide; lactam N-7), the microsomal CLint at 1 uM in data set [1] (setting [3]) turned out to be 129 µL/min/mg. The Papp at 18 hours, 50 µM in data set [2] (setting [4]) stood at 21 ×10⁻⁶ cm/s.

On to `CC[C@H](C)[C@@H]1NC(=O)[C@H](CC(C)C)N(C)C(=O)[C@H](C)NC(=O)CCCN(C)C(=O)C[C@H](C)NC(=O)[C@H]([C@@H](C)O)NC(=O)[C@H](Cc2ccccc2)NC(=O)[C@H](C(C)C)N(C)C(=O)[C@H](CC(C)C)N(C)C1=O` [DP-823] (cyclo(A[NMeL]I[NMeL][NMeV]FT[β3hA][NMeGABA])), for which the microsomal CLint at 1 uM in data set [1] (setting [3]) worked out at 254 µL/min/mg. Moreover, the Papp at 18 hours, 50 µM in data set [2] (setting [4]) amounted to 31 ×10⁻⁶ cm/s.

Turning to `CC[C@H](C)[C@H]1C(=O)N[C@H](C(=O)N2CCCCC2)CC(=O)N(C)[C@H](C)C(=O)N(C)[C@@H](C(C)C)C(=O)N[C@@H](Cc2ccccc2)C(=O)N[C@@H](CC(C)C)C(=O)N(C)[C@@H](C)C(=O)N[C@@H]([C@@H](C)O)C(=O)N[C@@H](Cc2ccccc2)C(=O)N(C)[C@@H](CC(C)C)C(=O)N[C@@H](CC(C)C)C(=O)NCC(=O)N1C` [DP-223] ([dNMeA][NMeV]FL[NMeA]TF[NMeL]LG[NMeI]D-Piperidide; lactam N-12), in data set [1] (setting [3]), the microsomal CLint at 1 uM was determined as 42 µL/min/mg. For the same compound, the Papp at 18 hours, 50 µM in data set [2] (setting [4]) is 23 ×10⁻⁶ cm/s.

In the case of `CC[C@H](C)[C@H](NC(=O)[C@@H]1CC(=O)N[C@@H](C)C(=O)N[C@@H]([C@@H](C)O)C(=O)N(C)CC(=O)N[C@@H](CC(C)C)C(=O)N2CCC[C@H]2C(=O)N(C)[C@@H](CC(C)C)C(=O)N[C@@H](Cc2ccccc2)C(=O)N(C)[C@@H](Cc2ccccc2)C(=O)N(C)[C@@H](C)C(=O)N(C)[C@@H](CC(C)C)C(=O)N[C@@H](C)C(=O)N(C)[C@@H](CC(C)C)C(=O)N1)C(=O)N1CCCCC1` [DP-955] (AT[Sar]LP[NMeL]F[NMeF][NMeA][NMeL]A[NMeL]DI-Piperidide; lactam N-13), the microsomal CLint at 1 uM in data set [1] (setting [3]) came out at 30 µL/min/mg. Also, the Papp at 18 hours, 50 µM in data set [2] (setting [4]) was determined as 6.3 ×10⁻⁶ cm/s.

Take `CC[C@H](C)[C@@H]1NC(=O)[C@H](CC(C)C)N(C)C(=O)[C@H](Cc2ccccc2)N(C)C(=O)[C@@H](C(C)C)NC(=O)C[C@H](C)NC(=O)[C@H](CC(C)C)N(C)C(=O)[C@H](C)N(C)C(=O)[C@H]([C@@H](C)O)NC(=O)[C@H](Cc2ccccc2)N(C)C(=O)[C@H](CC(C)C)N(C)C1=O` [DP-781] (cyclo(I[NMeL][NMeF]T[NMeA][NMeL][β3hA][dV][NMeF][NMeL])): in data set [1] (human, pH 7.4, CL NADPH(+)), the microsomal CLint at 1 uM came out at 142 µL/min/mg. In data set [2] (pH 6.5), this compound showed a Papp at 18 hours, 50 µM of 29 ×10⁻⁶ cm/s.

In data set [1] (human, pH 7.4, CL NADPH(+)), `CC(C)C[C@H]1C(=O)NCC(=O)N[C@H](C(=O)N(C)[C@@H](Cc2ccccc2)C(=O)N(C)[C@@H](Cc2ccccc2)C(=O)N[C@@H](C)C(=O)N2CCCCC2)CC(=O)N[C@@H](C)C(=O)N[C@@H]([C@@H](C)O)C(=O)N(C)[C@@H](C)C(=O)N(C)[C@@H](Cc2ccccc2)C(=O)N[C@@H](C(C)C)C(=O)N(C)[C@@H](Cc2ccccc2)C(=O)N1C` [DP-396] (AT[NMeA][NMeF]V[NMeF][NMeL]GD[NMeF][NMeF]A-Piperidide; lactam N-9) yielded a microsomal CLint at 1 uM of 141 µL/min/mg. In data set [2] (pH 6.5), this compound registered a Papp at 18 hours, 50 µM of 55 ×10⁻⁶ cm/s.

`CC(C)C[C@H]1C(=O)N[C@H](C(=O)N2CCCCC2)Cc2cccc(c2)CCCCC(=O)N(C)[C@@H](Cc2ccccc2)C(=O)NCC(=O)N(C)[C@@H](Cc2ccccc2)C(=O)N(C)[C@@H](CC(C)C)C(=O)N(C)[C@@H](CC(C)C)C(=O)N1C` [DP-844] ([NMeF]G[NMeF][NMeL][NMeL][NMeL][Phe(3-(CH2)4CO)]-Piperidide; lactam N-7) showed a microsomal CLint at 1 uM in data set [1] (human, pH 7.4, CL NADPH(+)) of 356 µL/min/mg. The Papp at 18 hours, 50 µM in data set [2] (pH 6.5) is 11 ×10⁻⁶ cm/s.

`CC[C@H](C)[C@H]1C(=O)NCC(=O)N(C)[C@@H](CC(C)C)C(=O)N[C@@H]([C@@H](C)O)C(=O)N2CCC[C@H]2C(=O)N[C@@H](Cc2ccccc2)C(=O)N[C@H](C(=O)N2CCCCC2)CC(=O)N(C)[C@@H](C)C(=O)N[C@@H](Cc2ccccc2)C(=O)N(C)[C@@H](CC(C)C)C(=O)N[C@@H](CC(C)C)C(=O)N1C` [DP-236] ([NMeA]F[NMeL]L[NMeI]G[NMeL]TPFD-Piperidide; lactam N-11): the microsomal CLint at 1 uM in data set [1] (setting [3]) was 79 µL/min/mg. Further, the “iPAMPA Pe” value in data set [2] (membrane permeation rate (Pe), 50 mM MOPSO buffer pH 6.5 with 5.0% glycocholic acid, 37° C., 18 hours) was determined as 7.0E−05.

Regarding `CC[C@@H]1NC(=O)[C@H](CO)N(C)C(=O)[C@H](CC(C)C)N(C)C(=O)[C@H](CC(C)C)N(C)C(=O)[C@H](CC(C)C)N(C)C(=O)[C@@H](CC(C)C)NC(=O)[C@H](C)NC(=O)[C@H](CC(C)C)N(C)C(=O)[C@H](C)NC(=O)[C@H](CC(C)C)N(C)C(=O)C[C@H](C)NC1=O` [DP-650] (cyclo(A[NMeL]A[dL][NMeL][NMeL][NMeL][NMeS][Abu][β3hA][NMeL])), the microsomal CLint at 1 uM in data set [1] (setting [3]) worked out at 33 µL/min/mg. Also, the Papp at 18 hours, 50 µM in data set [2] (setting [4]) was found to be 26 ×10⁻⁶ cm/s.

With `CC(C)C[C@H]1C(=O)N(C)[C@@H](CC(C)C)C(=O)N[C@H](C(=O)N2CCCCC2)CC(=O)N[C@H](C)C(=O)N(C)[C@@H](Cc2ccccc2)C(=O)N(C)[C@@H](CC(C)C)C(=O)N[C@@H]([C@@H](C)O)C(=O)N1C` [DP-721] ([dA][NMeF][NMeL]T[NMeL][NMeL]D-Piperidide; lactam N-7), the microsomal CLint at 1 uM in data set [1] (setting [3]) was 915 µL/min/mg. In addition, the Papp at 18 hours, 50 µM in data set [2] (setting [4]) is 49 ×10⁻⁶ cm/s.

`CC[C@H](C)[C@@H]1NC(=O)[C@H](Cc2ccccc2)NC(=O)[C@@H]2CCCN2C(=O)[C@H](CC(C)C)N(C)C(=O)[C@H](Cc2ccccc2)NC(=O)[C@H](CC(C)C)NC(=O)[C@H]([C@@H](C)O)NC(=O)[C@H](C)N(C)C(=O)[C@H](C(C)C)NC(=O)CCCCc2cccc(c2)C[C@@H](C(=O)N2CCCCC2)NC(=O)[C@H](CC(C)C)NC(=O)CN(C)C1=O` [DP-900] (V[NMeA]TLF[NMeL]PFI[Sar]L[Phe(3-(CH2)4CO)]-Piperidide; lactam N-12): the microsomal CLint at 1 uM in data set [1] (setting [3]) was determined as 244 µL/min/mg. Moreover, in data set [2] (setting [4]), the Papp at 18 hours, 50 µM was 1.3 ×10⁻⁶ cm/s.

`CC[C@H](C)[C@H]1C(=O)NCC(=O)N[C@@H]([C@@H](C)O)C(=O)N2CCC[C@H]2C(=O)N[C@@H](Cc2ccccc2)C(=O)N(C)[C@@H](CC(C)C)C(=O)N[C@H](C(=O)N2CCCCC2)CC(=O)N[C@H](C(C)C)C(=O)N[C@@H](Cc2ccccc2)C(=O)N(C)[C@@H](CC(C)C)C(=O)N[C@@H](CC(C)C)C(=O)N1C` [DP-231] ([dV]F[NMeL]L[NMeI]GTPF[NMeL]D-Piperidide; lactam N-11) had a microsomal CLint at 1 uM in data set [1] (human, pH 7.4, CL NADPH(+)) of 56 µL/min/mg. For the same compound, the Papp at 18 hours, 50 µM in data set [2] (pH 6.5) stood at 18 ×10⁻⁶ cm/s.
